Source: PubChem BioAssay (NCI)
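Where inhibition never reached the appropriate level, the endpoint shown equals the highest concentration tested. Otherwise, values were interpolated linearly from a five-concentration, 48-hour dose response in 96-well plates. Definition used: TGI = concentration required for complete inhibition of growth.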

What was measured:
Test in all cases: NCI-60 cell line screen, 48 h
[1] = system: SK-OV-3 ovarian
[2] = system: A498 renal
[3] = system: IGROV1 ovarian
[4] = system: MCF7 breast
[5] = system: OVCAR-4 ovarian
[6] = system: T-47D breast
[7] = system: HS 578T breast
[8] = system: NCI/ADR-RES ovarian
[9] = system: CCRF-CEM leukemia
[10] = system: SK-MEL-5 melanoma
[11] = system: RXF 393 renal
[12] = system: OVCAR-3 ovarian
[13] = system: COLO 205 colon
[14] = system: NCI-H23 lung
[15] = system: NCI-H460 lung
[16] = system: ACHN renal
[17] = system: NCI-H522 lung
[18] = system: OVCAR-8 ovarian
[19] = system: M14 melanoma
[20] = system: SF-295 CNS
[21] = system: HCT-116 colon
[22] = system: HCT-15 colon
[23] = system: UACC-62 melanoma
[24] = system: SN12C renal
[25] = system: SK-MEL-2 melanoma
[26] = system: NCI-H226 lung
[27] = system: MALME-3M melanoma
[28] = system: EKVX NSCLC
[29] = system: MDA-MB-435
[30] = system: HOP-62 NSCLC
[31] = system: MOLT-4 leukemia
[32] = system: SK-MEL-28 melanoma
[33] = system: OVCAR-5 ovarian
[34] = system: SNB-19 CNS
[35] = system: SNB-75 CNS
[36] = system: KM12 colon
[37] = system: MDA-MB-231 breast
[38] = system: A549 NSCLC
[39] = system: UACC-257 melanoma
[40] = system: LOX IMVI melanoma
[41] = system: TK-10 renal
[42] = system: MDA-N
[43] = system: SF-268 CNS
[44] = system: HT29 colon
[45] = system: HCC-2998 colon
[46] = system: CAKI-1 renal
[47] = system: SF-539 CNS
[48] = system: PC-3 prostate
[49] = system: SR leukemia
[50] = system: HL-60(TB) leukemia
[51] = system: HOP-92 NSCLC
[52] = system: SW-620 colon
[53] = system: DU-145 prostate
[54] = system: 786-0 renal
[55] = system: RPMI-8226 leukemia
[56] = system: UO-31 renal
[57] = system: K-562 leukemia
[58] = system: U251 CNS

In the case of `O=C1CCCSC(=O)N1Cc1ccccc1`, the TGI [1] is reported as > 100 µM, the TGI [2] is reported as > 100 µM and the TGI [3] is reported as > 100 µM. The TGI [4] was > 100 µM, the TGI [5] was > 100 µM and the TGI [6] was > 100 µM. The TGI [7] was > 100 µM, the TGI [8] was > 100 µM and the TGI [9] was > 100 µM. The TGI [10] was > 100 µM, the TGI [11] was > 100 µM and the TGI [12] was > 100 µM. For the same compound, the TGI [13] was > 100 µM, the TGI [14] was > 100 µM and the TGI [15] was > 100 µM. The TGI [16] was > 100 µM, the TGI [17] was > 100 µM and the TGI [18] was > 100 µM. For the same compound, the TGI [19] was > 100 µM, the TGI [20] was > 100 µM and the TGI [21] was > 100 µM. The TGI [22] was > 100 µM, the TGI [23] was > 100 µM and the TGI [24] was > 100 µM. The TGI [25] was > 100 µM, the TGI [26] was > 100 µM and the TGI [27] was > 100 µM. For the same compound, the TGI [28] was > 100 µM, the TGI [29] was > 100 µM and the TGI [30] was > 100 µM. For the same compound, the TGI [31] was > 100 µM, the TGI [32] was > 100 µM and the TGI [33] was > 100 µM. For the same compound, the TGI [34] was > 100 µM, the TGI [35] was > 100 µM and the TGI [36] was > 100 µM. The TGI [37] was > 100 µM, the TGI [38] was > 100 µM and the TGI [39] was > 100 µM. The TGI [40] was > 100 µM, the TGI [41] was > 100 µM and the TGI [42] was > 100 µM. The TGI [43] was > 100 µM, the TGI [44] was > 100 µM and the TGI [45] was > 100 µM. For the same compound, the TGI [46] was > 100 µM, the TGI [47] was > 100 µM and the TGI [48] was > 100 µM. For the same compound, the TGI [49] was > 100 µM, the TGI [50] was > 100 µM and the TGI [51] was > 100 µM. For the same compound, the TGI [52] was > 100 µM, the TGI [53] was > 100 µM and the TGI [54] was > 100 µM.
In the case of `Cc1ccc(Cl)c2c(N=Nc3ccccc3[N+](=O)[O-])c(O)[nH]c12`, the TGI [1] is reported as > 100 µM, the TGI [2] is reported as > 100 µM and the TGI [3] is reported as > 100 µM. The TGI [4] was > 100 µM, the TGI [5] was > 100 µM and the TGI [6] was > 100 µM. The TGI [7] was 70.2 µM, the TGI [8] was > 100 µM and the TGI [9] was > 100 µM. For the same compound, the TGI [11] was > 100 µM, the TGI [12] was > 100 µM and the TGI [13] was > 100 µM. The TGI [14] was > 100 µM, the TGI [15] was > 100 µM and the TGI [16] was > 100 µM. The TGI [18] was > 100 µM, the TGI [19] was > 100 µM and the TGI [55] was > 100 µM. The TGI [20] was > 100 µM, the TGI [21] was > 100 µM and the TGI [22] was > 100 µM. The TGI [23] was > 100 µM, the TGI [24] was > 100 µM and the TGI [25] was > 100 µM. For the same compound, the TGI [26] was > 100 µM, the TGI [27] was > 100 µM and the TGI [28] was > 100 µM. The TGI [29] was 35.3 µM, the TGI [30] was > 100 µM and the TGI [31] was > 100 µM. The TGI [32] was > 100 µM, the TGI [33] was > 100 µM and the TGI [34] was > 100 µM. The TGI [35] was > 100 µM, the TGI [36] was > 100 µM and the TGI [37] was > 100 µM. The TGI [38] was > 100 µM, the TGI [39] was > 100 µM and the TGI [40] was > 100 µM. The TGI [41] was > 100 µM, the TGI [42] was > 100 µM and the TGI [56] was > 100 µM. For the same compound, the TGI [43] was > 100 µM, the TGI [57] was > 100 µM and the TGI [44] was > 100 µM. For the same compound, the TGI [58] was > 100 µM, the TGI [45] was > 100 µM and the TGI [46] was > 100 µM. For the same compound, the TGI [47] was 48.6 µM, the TGI [48] was > 100 µM and the TGI [49] was > 100 µM. For the same compound, the TGI [50] was > 100 µM, the TGI [51] was > 100 µM and the TGI [52] was > 100 µM. For the same compound, the TGI [53] was > 100 µM and the TGI [54] was > 100 µM.
